Tests used:
[1] = biological target: T1, IDO (Homo sapiens, UniProt P14902); assay: SKOV3 kynurenine cell-based assay (IDO induced by IFN-γ); design: IDO expression was induced in the SKOV3 cells by the addition of 500 ng/ml IFN-γ; endogenous in cells; host or cells: SKOV3 (human ovarian adenocarcinoma), induced with IFN-γ; details: 48 hours, read-out: SKOV3 Kynurenine cell based assay pIC50 (converted)
Method in brief: (§1)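 A172 glioblastoma cells (TDO; 30,000/well) and SKOV3 ovarian cells (IDO induced with 500 ng/ml IFN-γ; 40,000/well) were grown in phenol red-free RPMI with 10% FCS, 2 mM L-glutamine and 500 μM L-tryptophan. They were incubated ±compound for 48 hours at 37 °C. Supernatant kynurenine was read with Ehrlich's reagent (5 min) at […] absorbance.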

[2] = biological target: T2, TDO (Homo sapiens, UniProt P48775); assay: A172 kynurenine cell-based assay; design: This assay utilised cancer cells which expressed either TDO or IDO; endogenous in cells; host or cells: A172 (human glioblastoma); details: A172 human glioblastoma cells, 48 hours, read-out: A172 Kynurenine cell based assay pIC50 (converted)
Method in brief: as §1

[3] = biological target: T1, IDO; assay: hIDO biochemical coupled assay; details: 45 μM L-tryptophan, read-out: hIDO biochemical assay pIC50 (converted)
[4] = biological target: T2, TDO; assay: hTDO biochemical coupled assay; details: 330 μM L-tryptophan, read-out: hTDO biochemical assay pIC50 (converted)
[5] = SKOV3 human ovarian adenocarcinoma cells, 500 ng/ml IFN-γ, 500 μM L-tryptophan

T2 sequence (P48775 whole entry): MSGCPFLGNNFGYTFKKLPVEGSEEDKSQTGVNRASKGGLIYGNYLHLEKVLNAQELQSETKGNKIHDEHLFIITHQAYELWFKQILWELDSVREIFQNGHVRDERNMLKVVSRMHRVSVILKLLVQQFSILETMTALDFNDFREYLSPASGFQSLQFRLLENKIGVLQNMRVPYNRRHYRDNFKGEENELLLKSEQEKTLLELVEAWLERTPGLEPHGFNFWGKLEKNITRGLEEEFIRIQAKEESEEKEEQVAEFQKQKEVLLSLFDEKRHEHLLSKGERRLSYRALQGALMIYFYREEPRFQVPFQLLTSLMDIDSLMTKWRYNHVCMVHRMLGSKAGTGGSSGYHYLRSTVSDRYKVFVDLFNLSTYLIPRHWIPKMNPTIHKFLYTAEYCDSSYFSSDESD
T1 sequence (P14902 whole entry): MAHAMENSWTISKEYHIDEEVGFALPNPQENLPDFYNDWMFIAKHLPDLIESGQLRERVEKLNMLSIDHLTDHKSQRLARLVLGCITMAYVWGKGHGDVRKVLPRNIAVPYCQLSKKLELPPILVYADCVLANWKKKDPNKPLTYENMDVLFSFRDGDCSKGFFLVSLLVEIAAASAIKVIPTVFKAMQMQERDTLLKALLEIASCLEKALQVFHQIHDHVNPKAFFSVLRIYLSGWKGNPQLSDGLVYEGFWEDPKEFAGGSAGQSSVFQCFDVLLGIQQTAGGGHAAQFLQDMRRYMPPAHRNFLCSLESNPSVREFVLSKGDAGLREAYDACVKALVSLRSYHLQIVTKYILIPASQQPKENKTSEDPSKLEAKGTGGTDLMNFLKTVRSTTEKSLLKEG

| SMILES | IC50 [1, 5] | IC50 ([2]; 500 μM L-tryptophan) | IC50 ([3]; 17 minutes, room temperature) | IC50 ([4]; 17 minutes, room temperature) | IC50 ([1]; SKOV3 cells, IDO induced by 500 ng/ml IFN-γ) | IC50 [2] | IC50 [3] | IC50 [4] |
| --- | --- | --- | --- | --- | --- | --- | --- | --- |
| Clc1cc(N2CCN(c3cccnc3)CC2)c2cn[nH]c2c1 [Compound 375] | 3.24 to 31.6 µM | < 3.16 µM | > 100 µM | < 3.16 µM |  |  |  |  |
| OC1(c2cc(Cl)cc3[nH]ncc23)CCCCC1 [Compound 273, 1-(6-chloro-1H-indazol-4-yl)cyclohexanol] | 3.24 to 31.6 µM | < 3.16 µM | 3.24 to 31.6 µM | < 3.16 µM | 9.55 µM | 0.0135 µM | 11.7 µM | 0.0851 µM |
| O=S(=O)(C1CC1)N1CCN(c2cccc3[nH]ncc23)CC1 [Compound 19] | 32.4 to 100 µM | 3.24 to 31.6 µM | > 100 µM | 3.24 to 31.6 µM |  |  |  |  |
| CN1CC2(CCN(c3cc(Cl)cc4[nH]ncc34)CC2)CC1=O [Compound 291] | 3.24 to 31.6 µM | < 3.16 µM | > 100 µM | < 3.16 µM |  |  |  |  |
| CC(=O)N1CCC(n2cc(-c3cc(Cl)cc4[nH]ncc34)cn2)CC1 [Compound 348] | 3.24 to 31.6 µM | < 3.16 µM | > 100 µM | < 3.16 µM |  |  |  |  |
| CC(=O)N1CCOC2(CCN(c3cc(Cl)cc4[nH]ncc34)CC2)C1 [Compound 409] | > 100 µM | 3.24 to 31.6 µM | 32.4 to 100 µM | < 3.16 µM |  |  |  |  |
| O=C1NCC2(CCN(c3cc(Cl)cc4[nH]ncc34)CC2)N1 [Compound 267] | 3.24 to 31.6 µM | < 3.16 µM | 3.24 to 31.6 µM | < 3.16 µM |  |  |  |  |
| O=C1CCCC2(CCN(c3cc(Cl)cc4[nH]ncc34)CC2)N1 [Compound 216] | 3.24 to 31.6 µM | < 3.16 µM | > 100 µM | < 3.16 µM |  |  |  |  |
| Clc1cc(N2CCN(c3ccncc3)CC2)c2cn[nH]c2c1 [Compound 374] | 32.4 to 100 µM | < 3.16 µM | > 100 µM | 3.24 to 31.6 µM |  |  |  |  |
| CNC(=O)C1CCCN(c2cc(Cl)cc3[nH]ncc23)C1 (stereo not shown) [Compound 210] | 32.4 to 100 µM | 3.24 to 31.6 µM | > 100 µM | 3.24 to 31.6 µM |  |  |  |  |
| CS(=O)(=O)N1CCC(n2cc(-c3cc(Cl)cc4[nH]ncc34)cn2)CC1 [Compound 347] | 3.24 to 31.6 µM | < 3.16 µM | > 100 µM | < 3.16 µM |  |  |  |  |
| OC(c1cc(Cl)cc2[nH]ncc12)C1CCOCC1 (stereo not shown) [Compound 299] | > 100 µM | < 3.16 µM | > 100 µM | < 3.16 µM |  |  |  |  |
| Clc1cc(N2CCc3ccncc3C2)c2cn[nH]c2c1 [Compound 346] | 3.24 to 31.6 µM | < 3.16 µM | > 100 µM | < 3.16 µM |  |  |  |  |
| CC(=O)Nc1ccc2c(c1)CCN(c1cc(Cl)cc3[nH]ncc13)C2 [Compound 358] | 3.24 to 31.6 µM | < 3.16 µM | > 100 µM | < 3.16 µM |  |  |  |  |
| CC(=O)N(C)C1CCN(c2cc(Cl)cc3[nH]ncc23)C1 (stereo not shown) [Compound 278] | 3.24 to 31.6 µM | < 3.16 µM | 32.4 to 100 µM | < 3.16 µM |  |  |  |  |
| Cc1nc2c(n1C)CN(c1cc(C(F)(F)F)cc3[nH]ncc13)CC2 [Compound 357] | < 3.16 µM | < 3.16 µM | > 100 µM | 3.24 to 31.6 µM |  |  |  |  |
| Clc1cc(N2CCCCC2)c2cn[nH]c2c1 [Compound 308] | > 100 µM | < 3.16 µM | 32.4 to 100 µM | 3.24 to 31.6 µM |  |  |  |  |
| O=C1NCNC12CCN(c1cc(Cl)cc3[nH]ncc13)CC2 [Compound 397] | > 100 µM | < 3.16 µM | > 100 µM | < 3.16 µM |  |  |  |  |

| SMILES | IC50 [1, 5] | IC50 ([2]; 500 μM L-tryptophan) | IC50 ([3]; 17 minutes, room temperature) | IC50 ([4]; 17 minutes, room temperature) | IC50 ([1]; SKOV3 cells, IDO induced by 500 ng/ml IFN-γ) | IC50 [2] | IC50 [3] | IC50 [4] |
| --- | --- | --- | --- | --- | --- | --- | --- | --- |
| Clc1cc(N2CCC(N3CCOCC3)CC2)c2cn[nH]c2c1 [Compound 451] | > 100 µM | < 3.16 µM | 32.4 to 100 µM | < 3.16 µM |  |  |  |  |
| CC1(C)CN(c2cc(Cl)cc3[nH]ncc23)CCN1S(N)(=O)=O [Compound 227] | < 3.16 µM | < 3.16 µM | < 3.16 µM | < 3.16 µM |  |  |  |  |
| CN(C)S(=O)(=O)N1CCN(c2cccc3[nH]ncc23)CC1 [Compound 21] | 32.4 to 100 µM | 3.24 to 31.6 µM | > 100 µM | 3.24 to 31.6 µM |  |  |  |  |
| Clc1cc(N2CCc3cn[nH]c3C2)c2cn[nH]c2c1 [Compound 417] | > 100 µM | < 3.16 µM | > 100 µM | < 3.16 µM |  |  |  |  |
| O=c1[nH]c2ccccc2n1C1CCN(c2cc(Cl)cc3[nH]ncc23)CC1 [Compound 354] | 3.24 to 31.6 µM | < 3.16 µM | > 100 µM | < 3.16 µM |  |  |  |  |
| CS(=O)(=O)N1CC2(CCN(c3cc(Cl)cc4[nH]ncc34)CC2)C1 [Compound 351] | 3.24 to 31.6 µM | < 3.16 µM | 32.4 to 100 µM | < 3.16 µM |  |  |  |  |
| CN(C1CCN(c2cc(Cl)cc3[nH]ncc23)CC1(C)C)S(C)(=O)=O (stereo not shown) [Compound 449] | 3.24 to 31.6 µM | < 3.16 µM | 3.24 to 31.6 µM | < 3.16 µM |  |  |  |  |
| CN1C(=O)NC(C2CCN(c3cc(Cl)cc4[nH]ncc34)CC2)C1=O (stereo not shown) [Compound 444] | > 100 µM | < 3.16 µM | > 100 µM | < 3.16 µM |  |  |  |  |
| CC1(C)CCC(O)(c2cc(Cl)cc3[nH]ncc23)CC1 [Compound 427] | > 100 µM | < 3.16 µM | > 100 µM | 3.24 to 31.6 µM |  |  |  |  |
| COCCS(=O)(=O)N1CCC(c2cc(Cl)cc3[nH]ncc23)CC1 [Compound 228] | 3.24 to 31.6 µM | < 3.16 µM | 3.24 to 31.6 µM | < 3.16 µM |  |  |  |  |
| CS(=O)(=O)N1CCN(c2cc(Cl)cc3c(N)noc23)CC1 [Compound 302] | 3.24 to 31.6 µM | 3.24 to 31.6 µM | > 100 µM | > 100 µM |  |  |  |  |
| O=C1NC2(CCN(c3cc(Cl)cc4[nH]ncc34)CC2)C(=O)N1CC(F)(F)F [Compound 405] | < 3.16 µM | < 3.16 µM | < 3.16 µM | < 3.16 µM |  |  |  |  |
| CC1(C)CN(c2cc(C(F)F)cc3[nH]ncc23)CCN1S(C)(=O)=O [Compound 370] | < 3.16 µM | < 3.16 µM | < 3.16 µM | < 3.16 µM |  |  |  |  |
| O=C1N[C@H]2CC[C@@H]1CN(c1cc(Br)cc3[nH]ncc13)C2 [Compound 438] | > 100 µM | < 3.16 µM | 3.24 to 31.6 µM | < 3.16 µM |  |  |  |  |
| COCCc1cc(Cl)cc2[nH]ncc12 [Compound 288] | > 100 µM | < 3.16 µM | > 100 µM | < 3.16 µM |  |  |  |  |
| Cn1ncc2c1CN(c1cc(Cl)cc3[nH]ncc13)CC2 [Compound 432] | > 100 µM | < 3.16 µM | 3.24 to 31.6 µM | < 3.16 µM |  |  |  |  |
| CC1(C)CN(c2cc(Cl)cc3c(N)n[nH]c23)CCN1S(C)(=O)=O [Compound 321] | 3.24 to 31.6 µM | 3.24 to 31.6 µM | > 100 µM | > 100 µM |  |  |  |  |
| CC(=O)Nc1cc(N2CCN(S(C)(=O)=O)C(C)(C)C2)c2cn[nH]c2c1 [Compound 312] | > 100 µM | 3.24 to 31.6 µM | > 100 µM | > 100 µM |  |  |  |  |

Reference: US10590086B2, “Pharmaceutical compound” (IOmet Pharma Ltd., priority 2014, dated 2020)
